Experimental data as given in patent US11052063B2, “Methods of reducing RLP-C” (Amarin Pharmaceuticals Ireland Limited, priority 2014, dated 2021).

Tested on: Serum RLP-C
Assay: 12-week placebo-controlled study (MARINE), serum RLP-C by immunoseparation assay, patients with fasting TG ≥500 mg/dL
Type: in vivo, human
Conditions: for Median Change from Baseline in RLP-C vs. Placebo: Hodges-Lehmann estimate; for Median Change from Baseline in RLP-C vs. Placebo / RLP-C Concentration End of Treatment: week 12; for RLP-C Concentration Change: median change from baseline to week 12; for RLP-C Concentration Baseline / RLP-C Concentration End of Treatment: median; for RLP-C Concentration Baseline: before treatment
Experimental: A multi-center, placebo-controlled randomized, double-blind, 12-week study with an open-label extension was performed to evaluate the efficacy and safety of AMR101 in patients with fasting triglyceride levels≥500 mg/dL. The primary objective of the study was to determine the efficacy of >96%, by weight of all fatty acids present, ethyl-EPA (“AMR101”) 2 g daily and 4 g daily, compared to placebo, in lowering fasting TG levels in patients with fasting TG levels≥500 mg/dL and ≤1500 mg/dL (≥5.65 mmol/L and ≤16.94 mmol/L). The population for this study was men and women (women of childbearing potential needed to be on contraception or practice abstinence) >18 years of age with a body mass index≤45 kg/m^2 who were not on lipid-altering therapy or were not currently on lipid-altering therapy. Patients currently on statin therapy (with or without ezetimibe) were evaluated by the investigator as to whether this therapy could be safely discontinued at screening, or if it should have been continued. If statin therapy (with or without ezetimibe) was to be continued, dose(s) must have been stable for ≥4 weeks prior to randomization. Patients taking non-statin, lipid-altering medications (niacin>200 mg/day, fibrates, fish oil, other products containing omega-3 fatty acids, or other herbal products or dietary supplements with potential lipid-altering effects), either alone or in combination with statin therapy (with or without ezetimibe), must have been able to safely discontinue non-statin, lipid-altering therapy at screening. Approximately 240 patients were randomized at approximately 50 centers in North America, South America, Central America, Europe, India, and South Africa. The study was a 58- to 60-week, Phase 3, multi-center study consisting of 3 study periods: (1) a 6- to 8-week screening period that included a diet and lifestyle stabilization and washout period and a TG qualifying period; (2) a 12-week, double-blind, randomized, placebo-controlled treatment period; and (3) a 40-week, open-label, extension period. After confirmation of qualifying fasting TG values, eligible patients entered a 12-week, randomized, double-blind treatment period. At Visit 4 (Week 0), patients were randomly assigned to one of the following treatment groups: • AMR101 2 g daily, • AMR101 4 g daily, or • Placebo. Eligible patients were randomly assigned at Visit 4 (Week 0) to orally receive AMR101 2 g daily, AMR101 4 g daily, or placebo for the 12-week double-blind treatment period. AMR101 was provided in 1 g liquid-filled, oblong, gelatin capsules. The matching placebo capsule was filled with light liquid paraffin and contained 0 g of AMR101. During the double-blind treatment period, patients took 2 capsules (AMR101 or matching placebo) in the morning and 2 in the evening for a total of 4 capsules per day. Patients in the AMR101 2 g/day treatment group received 1 AMR101 1 g capsule and 1 matching placebo capsule in the morning and in the evening. Patients in the AMR101 4 g/day treatment group received 2 AMR101 1 g capsules in the morning and evening. The primary efficacy variable for the double-blind treatment period was percent change in TG from baseline to Week 12 endpoint. […]

[1] = 2 g/day, Baseline TG >750 mg/dl
[2] = 2 g/day, Baseline TG ≤750 mg/dl
[3] = 4 g/day, Baseline TG >750 mg/dl
[4] = 4 g/day, Baseline TG ≤750 mg/dl

With `CC/C=C\C/C=C\C/C=C\C/C=C\C/C=C\CCCC(=O)OCC` [AMR101, ethyl-EPA] the “RLP-C compared to placebo” value (2 g/day treatment group, 12 weeks) was “reduced RLP-C compared to placebo”, the “Median Change from Baseline in RLP-C vs. Placebo” value (“Median Change from Baseline” for short) [1] was −25.4% and the “RLP-C Concentration Change” value [1] was −10.7%. For the same molecule, the “RLP-C Concentration Baseline” value [1] was 66.0 mg/dL, the “RLP-C Concentration End of Treatment” value [1] was 65.0 mg/dL and the “Median Change from Baseline” value [2] was −7.3%. The “RLP-C Concentration Change” value [2] was 18.2%, the “RLP-C Concentration Baseline” value [2] was 27.5 mg/dL and the “RLP-C Concentration End of Treatment” value [2] was 32.5 mg/dL. The “Median Change from Baseline” value (2 g/day, ITT) was −14.9%, the “RLP-C Concentration Change” value (2 g/day, ITT) was 5.8% and the “RLP-C Concentration Baseline” value (2 g/day, ITT) was 43.0 mg/dL. The “RLP-C Concentration End of Treatment” value (2 g/day, ITT) was 44.5 mg/dL, the “Median Change from Baseline” value (2 g/day, No Statin Use) was −8.5% and the “RLP-C Concentration Change” value (2 g/day, No Statin Use) was 3.0%. For the same molecule, the “RLP-C Concentration Baseline” value (2 g/day, No Statin Use) was 45.0 mg/dL, the “RLP-C Concentration End of Treatment” value (2 g/day, No Statin Use) was 44.5 mg/dL and the “Median Change from Baseline” value (2 g/day, With Statin Use) was −41.6%. For the same molecule, the “RLP-C Concentration Change” value (2 g/day, With Statin Use) was 29.2%, the “RLP-C Concentration Baseline” value (2 g/day, With Statin Use) was 31.5 mg/dL and the “RLP-C Concentration End of Treatment” value (2 g/day, With Statin Use) was 46.5 mg/dL. The “median placebo-adjusted reductions in RLP-C” value (4 g/day treatment group, 12 weeks, p=0.0041, stated as reduction) was 29.8%, the “reductions in RLP-C compared to baseline” value (4 g/day treatment group, 12 weeks, stated as reduction) was 16.1% and the “Median Change from Baseline” value [3] was −37.5%. The “RLP-C Concentration Change” value [3] was −25.4%, the “RLP-C Concentration Baseline” value [3] was 89.5 mg/dL and the “RLP-C Concentration End of Treatment” value [3] was 68.5 mg/dL. The “Median Change from Baseline” value [4] was −26.1%, the “RLP-C Concentration Change” value [4] was −8.8% and the “RLP-C Concentration Baseline” value [4] was 34.0 mg/dL. The “RLP-C Concentration End of Treatment” value [4] was 29.0 mg/dL, the “Median Change from Baseline” value (4 g/day, ITT) was −29.8% and the “RLP-C Concentration Change” value (4 g/day, ITT) was −16.1%. For the same molecule, the “RLP-C Concentration Baseline” value (4 g/day, ITT) was 45.0 mg/dL, the “RLP-C Concentration End of Treatment” value (4 g/day, ITT) was 38.0 mg/dL and the “Median Change from Baseline” value (4 g/day, No Statin Use) was −21.4%. For the same molecule, the “RLP-C Concentration Change” value (4 g/day, No Statin Use) was −16.6%, the “RLP-C Concentration Baseline” value (4 g/day, No Statin Use) was 45.0 mg/dL and the “RLP-C Concentration End of Treatment” value (4 g/day, No Statin Use) was 39.5 mg/dL. For the same molecule, the “Median Change from Baseline” value (4 g/day, With Statin Use) was −56.8%, the “RLP-C Concentration Change” value (4 g/day, With Statin Use) was −16.1% and the “RLP-C Concentration Baseline” value (4 g/day, With Statin Use) was 37.0 mg/dL. The “RLP-C Concentration End of Treatment” value (4 g/day, With Statin Use) was 33.0 mg/dL.
